From patent publication US9226916B2, “Pyrrolidine derivatives” (HOFFMANN-LA ROCHE INC., priority 2009, dated 2016)

Target: T1, recombinant human NK3 receptor (Homo sapiens, UniProt P29371)
T1 construct: expressed in transfected cells; host or cells: HEK293 cells, transient expression; membranes
T1 sequence (P29371 1-465): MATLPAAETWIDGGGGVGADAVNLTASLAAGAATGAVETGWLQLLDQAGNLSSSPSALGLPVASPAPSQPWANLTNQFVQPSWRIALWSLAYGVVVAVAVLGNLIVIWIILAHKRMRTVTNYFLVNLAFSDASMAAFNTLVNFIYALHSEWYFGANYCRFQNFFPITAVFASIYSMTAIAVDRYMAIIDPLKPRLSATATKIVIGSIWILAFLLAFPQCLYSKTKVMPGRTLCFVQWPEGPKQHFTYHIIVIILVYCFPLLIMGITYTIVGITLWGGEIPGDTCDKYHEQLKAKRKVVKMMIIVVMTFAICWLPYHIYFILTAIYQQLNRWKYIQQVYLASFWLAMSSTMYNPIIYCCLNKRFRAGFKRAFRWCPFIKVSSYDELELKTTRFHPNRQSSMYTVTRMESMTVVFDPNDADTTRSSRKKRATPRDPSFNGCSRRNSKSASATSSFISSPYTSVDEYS
Test: [3H]SR142801 competition binding assay

SMILES	Ki [nM]
Cc1cc(OC(=O)N(C)[C@@H]2CN(C(=O)C3CCN(C(=O)C4(C)CC4)CC3)C[C@H]2c2ccc(Cl)c(Cl)c2)cc(C)n1 [Example 294, {(3S,4R)-4-(3,4-Dichloro-phenyl)-1-[1-(1-methyl-cyclopropanecarbonyl)-piperidine-4-carbonyl]-pyrrolidin-3-yl}-methyl-carbamic acid 2,6-dimethyl-pyridin-4-yl ester]	11.2
CN(C(=O)Oc1ccncc1)[C@@H]1CN(C(=O)C2CCN(C(=O)C3(C)CC3)CC2)C[C@H]1c1ccc(Cl)c(Cl)c1 [Example 297, {(3S,4R)-4-(3,4-Dichloro-phenyl)-1-[1-(1-methyl-cyclopropanecarbonyl)-piperidine-4-carbonyl]-pyrrolidin-3-yl}-methyl-carbamic acid pyridin-4-yl ester]	5.9
CN(C(=O)Oc1cccc(Cl)n1)[C@@H]1CN(C(=O)C2CCN(C(=O)C3(C)CC3)CC2)C[C@H]1c1ccc(Cl)c(Cl)c1 [Example 300, {(3S,4R)-4-(3,4-Dichloro-phenyl)-1-[1-(1-methyl-cyclopropanecarbonyl)-piperidine-4-carbonyl]-pyrrolidin-3-yl}-methyl-carbamic acid 6-chloro-pyridin-2-yl ester]	2.6
CN(C(=O)Oc1ccc(F)cc1)[C@@H]1CN(C(=O)C2CCN(c3ccc(C(F)(F)F)cn3)CC2)C[C@H]1c1ccc(Cl)c(Cl)c1 [Example 306, [(3S,4R)-4-(3,4-Dichloro-phenyl)-1-(5′-trifluoromethyl-3,4,5,6-tetrahydro-2H-[1,2′]bipyridinyl-4-carbonyl)-pyrrolidin-3-yl]-methyl-carbamic acid 4-fluoro-phenyl ester]	0.7
CN(C(=O)Oc1ccc(F)cc1)[C@@H]1CN(C(=O)C2CCN(c3ccc(Cl)cn3)CC2)C[C@H]1c1ccc(Cl)c(Cl)c1 [Example 308, [(3S,4R)-1-(5′-Chloro-3,4,5,6-tetrahydro-2H-[1,2′]bipyridinyl-4-carbonyl)-4-(3,4-dichloro-phenyl)-pyrrolidin-3-yl]-methyl-carbamic acid 4-fluoro-phenyl ester]	0.2
CN(C(=O)Oc1ccc(F)cc1)[C@@H]1CN(C(=O)C2CCN(c3ccc(F)cn3)CC2)C[C@H]1c1ccc(Cl)c(Cl)c1 [Example 309, [(3S,4R)-4-(3,4-Dichloro-phenyl)-1-(5′-fluoro-3,4,5,6-tetrahydro-2H-[1,2′]bipyridinyl-4-carbonyl)-pyrrolidin-3-yl]-methyl-carbamic acid 4-fluoro-phenyl ester]	0.5
CN(C(=O)Oc1ccc(F)cc1)[C@@H]1CN(C(=O)C2CCN(c3ccc(C(N)=O)cn3)CC2)C[C@H]1c1ccc(Cl)c(Cl)c1 [Example 310, [(3S,4R)-1-(5′-Carbamoyl-3,4,5,6-tetrahydro-2H-[1,2′]bipyridinyl-4-carbonyl)-4-(3,4-dichloro-phenyl)-pyrrolidin-3-yl]-methyl-carbamic acid 4-fluoro-phenyl ester]	0.6
CN(C(=O)Oc1ccc(F)cc1)[C@@H]1CN(C(=O)C2CCN(c3ccc(F)cn3)CC2)C[C@H]1c1ccc(Cl)c(F)c1 [Example 311, [(3S,4R)-4-(4-Chloro-3-fluoro-phenyl)-1-(5′-fluoro-3,4,5,6-tetrahydro-2H-[1,2′]bipyridinyl-4-carbonyl)-pyrrolidin-3-yl]-methyl-carbamic acid 4-fluoro-phenyl ester]	0.9
CN(C(=O)Oc1ccc(F)cc1)[C@@H]1CN(C(=O)C2CCN(c3ccc(Cl)cn3)CC2)C[C@H]1c1ccc(Cl)c(F)c1 [Example 312, [(3S,4R)-4-(4-Chloro-3-fluoro-phenyl)-1-(5′-chloro-3,4,5,6-tetrahydro-2H-[1,2′]bipyridinyl-4-carbonyl)-pyrrolidin-3-yl]-methyl-carbamic acid 4-fluoro-phenyl ester]	0.4
CN(C(=O)Oc1ccc(F)cc1)[C@@H]1CN(C(=O)C2CCN(c3ccc(C(F)(F)F)cn3)CC2)C[C@H]1c1ccc(Cl)c(F)c1 [Example 313, [(3S,4R)-4-(4-Chloro-3-fluoro-phenyl)-1-(5′-trifluoromethyl-3,4,5,6-tetrahydro-2H-[1,2′]bipyridinyl-4-carbonyl)-pyrrolidin-3-yl]-methyl-carbamic acid 4-fluoro-phenyl ester]	0.9
CC(=O)c1ccc(N2CCC(C(=O)N3C[C@@H](N(C)C(=O)Oc4ccc(F)cc4)[C@H](c4ccc(Cl)c(F)c4)C3)CC2)nc1 [Example 314, [(3S,4R)-1-(5′-Acetyl-3,4,5,6-tetrahydro-2H-[1,2′]bipyridinyl-4-carbonyl)-4-(4-chloro-3-fluoro-phenyl)-pyrrolidin-3-yl]-methyl-carbamic acid 4-fluoro-phenyl ester]	0.6
CN(C(=O)Oc1ccc(F)cc1)[C@@H]1CN(C(=O)C2CCN(c3ccc(F)cn3)CC2)C[C@H]1c1ccc(F)c(Cl)c1 [Example 315, [(3S,4R)-4-(3-Chloro-4-fluoro-phenyl)-1-(5′-fluoro-3,4,5,6-tetrahydro-2H-[1,2′]bipyridinyl-4-carbonyl)-pyrrolidin-3-yl]-methyl-carbamic acid 4-fluoro-phenyl ester]	1.7
CN(C(=O)Oc1ccc(F)cc1)[C@@H]1CN(C(=O)C2CCN(c3ccc(Cl)cn3)CC2)C[C@H]1c1ccc(F)c(Cl)c1 [Example 316, [(3S,4R)-4-(3-Chloro-4-fluoro-phenyl)-1-(5′-chloro-3,4,5,6-tetrahydro-2H-[1,2′]bipyridinyl-4-carbonyl)-pyrrolidin-3-yl]-methyl-carbamic acid 4-fluoro-phenyl ester]	0.9
CN(C(=O)Oc1ccc(F)cc1)[C@@H]1CN(C(=O)C2CCN(c3ccc(C(F)(F)F)cn3)CC2)C[C@H]1c1ccc(F)c(Cl)c1 [Example 317, [(3S,4R)-4-(3-Chloro-4-fluoro-phenyl)-1-(5′-trifluoromethyl-3,4,5,6-tetrahydro-2H-[1,2′]bipyridinyl-4-carbonyl)-pyrrolidin-3-yl]-methyl-carbamic acid 4-fluoro-phenyl ester]	1.6
CC(=O)c1ccc(N2CCC(C(=O)N3C[C@@H](N(C)C(=O)Oc4ccc(F)cc4)[C@H](c4ccc(F)c(Cl)c4)C3)CC2)nc1 [Example 318, [(3S,4R)-1-(5′-Acetyl-3,4,5,6-tetrahydro-2H-[1,2′]bipyridinyl-4-carbonyl)-4-(3-chloro-4-fluoro-phenyl)-pyrrolidin-3-yl]-methyl-carbamic acid 4-fluoro-phenyl ester]	0.7
CN(C(=O)Oc1ccc(F)cc1)[C@@H]1CN(C(=O)C2CCN(C(=O)[C@@H]3CC(=O)N3)CC2)C[C@H]1c1ccc(Cl)cc1 [Example 319, {(3S,4R)-4-(4-Chloro-phenyl)-1-[1-((S)-4-oxo-azetidine-2-carbonyl)-piperidine-4-carbonyl]-pyrrolidin-3-yl}-methyl-carbamic acid 4-fluoro-phenyl ester]	10.6
CN(C(=O)Oc1ccc(F)cc1)[C@@H]1CN(C(=O)C2CCN(c3ccc(O)cn3)CC2)C[C@H]1c1ccc(Cl)cc1 [Example 320, [(3S,4R)-4-(4-Chloro-phenyl)-1-(5′-hydroxy-3,4,5,6-tetrahydro-2H-[1,2′]bipyridinyl-4-carbonyl)-pyrrolidin-3-yl]-methyl-carbamic acid 4-fluoro-phenyl ester]	6.7
